# Data from paper PMC12951562, “SH2scan: Mapping SH2 Domain-Ligand Binding Selectivity for Inhibitors and Degraders” (Journal of Medicinal Chemistry, 2026).
# Where two headings read alike, the source gives them in different places. Non-standard residues stand in square brackets, D forms with d. Residues, ends and D or L forms follow the SMILES beside them. *: point of attachment. pY = N[C@@H](Cc1ccc(OP(=O)(O)O)cc1)C(=O)O; Caffeoyl = O=C(/C=C/c1ccc(O)c(O)c1)*
# Assays:
# Assay in all cases: biochemical
# Assay type in all cases: binding
# APS (SH2B2) = target: T1, APS (SH2B2) (Homo sapiens, UniProt O14492)
# T1 construct: the DNA-tagged SH2 domain concentrations used in this study were <0.1 nM; made in house; host or cells: HEK293 (transient transfection; unpurified extract)
# FER = target: T2, FER (Homo sapiens, UniProt P16591)
# T2 construct: the DNA-tagged SH2 domain concentrations used in this study were <0.1 nM; made in house; host or cells: HEK293 (transient transfection; unpurified extract)
# FES = target: T3, FES (Homo sapiens, UniProt P07332); conditions: for remaining activity at 10 µM: read-out: percent of DMSO vehicle control
# T3 construct: the DNA-tagged SH2 domain concentrations used in this study were <0.1 nM; made in house; host or cells: HEK293 (transient transfection; unpurified extract)
# LNK (SH2B3) = target: T4, LNK (SH2B3) (Homo sapiens, UniProt Q9UQQ2); conditions: for remaining activity at 10 µM: read-out: percent of DMSO vehicle control
# T4 construct: the DNA-tagged SH2 domain concentrations used in this study were <0.1 nM; made in house; host or cells: HEK293 (transient transfection, unpurified extract)
# PIK3R3(SH2dom.C-term.) = target: T5, PIK3R3(SH2dom.C-term.) (Homo sapiens, UniProt Q92569); conditions: for remaining activity at 10 µM: read-out: percent of DMSO vehicle control
# T5 construct: SH2dom.C-term. denotes SH2 domain closest to C-terminus of protein; made in house; host or cells: HEK293 (transient transfection, unpurified extract)
# PTPN6(SH2dom.N-term.) = target: T6, PTPN6(SH2dom.N-term.) (Homo sapiens, UniProt P29350); conditions: for remaining activity at 10 µM: read-out: percent of DMSO vehicle control
# T6 construct: SH2dom.N-term. denotes SH2 domain closest to N-terminus of protein; made in house; host or cells: HEK293 (transient transfection, unpurified extract)
# T6 sequence (P29350 4-100 limits assumed): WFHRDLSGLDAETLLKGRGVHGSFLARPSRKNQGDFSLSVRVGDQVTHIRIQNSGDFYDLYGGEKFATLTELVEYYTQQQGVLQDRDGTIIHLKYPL
# SLP76 = target: T7, SLP76 (Homo sapiens, UniProt Q13094); conditions: for remaining activity at 10 µM: read-out: percent of DMSO vehicle control
# T7 construct: made in house; host or cells: HEK293 (transient transfection), unpurified extract
# T7 sequence (Q13094 1-533): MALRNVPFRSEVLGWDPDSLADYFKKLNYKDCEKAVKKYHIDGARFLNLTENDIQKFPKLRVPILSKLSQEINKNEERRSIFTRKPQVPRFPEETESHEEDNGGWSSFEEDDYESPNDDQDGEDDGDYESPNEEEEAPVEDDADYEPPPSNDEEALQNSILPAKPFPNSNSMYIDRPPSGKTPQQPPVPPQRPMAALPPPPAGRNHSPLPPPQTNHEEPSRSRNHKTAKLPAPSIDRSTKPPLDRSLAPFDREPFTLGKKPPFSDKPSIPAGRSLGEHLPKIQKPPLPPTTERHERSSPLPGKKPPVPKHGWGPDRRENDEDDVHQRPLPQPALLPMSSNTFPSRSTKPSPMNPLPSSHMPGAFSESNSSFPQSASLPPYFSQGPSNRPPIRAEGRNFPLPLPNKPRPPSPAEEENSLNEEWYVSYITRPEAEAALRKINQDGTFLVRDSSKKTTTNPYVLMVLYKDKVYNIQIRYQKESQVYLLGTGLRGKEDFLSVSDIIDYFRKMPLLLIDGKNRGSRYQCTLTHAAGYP
# SRMS = target: T8, SRMS (Homo sapiens, UniProt Q9H3Y6); conditions: for remaining activity at 10 µM: read-out: percent of DMSO vehicle control
# T8 construct: made in house; host or cells: HEK293 (transient transfection), unpurified extract
# STAT1 = target: T9, STAT1 (Homo sapiens, UniProt P42224); conditions: for remaining activity at 10 µM: read-out: percent of DMSO vehicle control
# T9 construct: made in house; host or cells: HEK293 (transient transfection), unpurified extract
# T9 sequence (P42224 1-750): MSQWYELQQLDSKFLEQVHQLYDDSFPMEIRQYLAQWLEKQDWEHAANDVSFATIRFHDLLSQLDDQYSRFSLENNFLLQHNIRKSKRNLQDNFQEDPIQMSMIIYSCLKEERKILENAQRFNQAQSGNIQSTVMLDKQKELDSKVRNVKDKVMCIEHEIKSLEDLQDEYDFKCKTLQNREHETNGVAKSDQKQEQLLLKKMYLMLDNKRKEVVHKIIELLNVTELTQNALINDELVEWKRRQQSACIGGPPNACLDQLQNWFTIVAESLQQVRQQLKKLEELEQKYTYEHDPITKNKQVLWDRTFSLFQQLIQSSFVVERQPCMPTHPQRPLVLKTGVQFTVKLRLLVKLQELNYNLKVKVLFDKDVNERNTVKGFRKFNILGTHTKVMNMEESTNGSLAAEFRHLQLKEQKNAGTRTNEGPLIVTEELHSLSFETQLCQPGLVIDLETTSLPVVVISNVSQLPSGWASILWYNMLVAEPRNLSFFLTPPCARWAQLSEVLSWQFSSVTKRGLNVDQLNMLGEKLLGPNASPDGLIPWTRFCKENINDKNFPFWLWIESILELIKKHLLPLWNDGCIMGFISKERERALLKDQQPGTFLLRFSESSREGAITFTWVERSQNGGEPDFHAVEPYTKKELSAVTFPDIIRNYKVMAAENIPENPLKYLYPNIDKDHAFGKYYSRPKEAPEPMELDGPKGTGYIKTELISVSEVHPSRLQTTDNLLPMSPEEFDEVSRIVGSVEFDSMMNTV
# VAV1 = target: T10, VAV1 (Homo sapiens, UniProt P15498)
# T10 construct: made in house; host or cells: HEK293 (transient transfection), unpurified extract
# T10 sequence (P15498 1-845): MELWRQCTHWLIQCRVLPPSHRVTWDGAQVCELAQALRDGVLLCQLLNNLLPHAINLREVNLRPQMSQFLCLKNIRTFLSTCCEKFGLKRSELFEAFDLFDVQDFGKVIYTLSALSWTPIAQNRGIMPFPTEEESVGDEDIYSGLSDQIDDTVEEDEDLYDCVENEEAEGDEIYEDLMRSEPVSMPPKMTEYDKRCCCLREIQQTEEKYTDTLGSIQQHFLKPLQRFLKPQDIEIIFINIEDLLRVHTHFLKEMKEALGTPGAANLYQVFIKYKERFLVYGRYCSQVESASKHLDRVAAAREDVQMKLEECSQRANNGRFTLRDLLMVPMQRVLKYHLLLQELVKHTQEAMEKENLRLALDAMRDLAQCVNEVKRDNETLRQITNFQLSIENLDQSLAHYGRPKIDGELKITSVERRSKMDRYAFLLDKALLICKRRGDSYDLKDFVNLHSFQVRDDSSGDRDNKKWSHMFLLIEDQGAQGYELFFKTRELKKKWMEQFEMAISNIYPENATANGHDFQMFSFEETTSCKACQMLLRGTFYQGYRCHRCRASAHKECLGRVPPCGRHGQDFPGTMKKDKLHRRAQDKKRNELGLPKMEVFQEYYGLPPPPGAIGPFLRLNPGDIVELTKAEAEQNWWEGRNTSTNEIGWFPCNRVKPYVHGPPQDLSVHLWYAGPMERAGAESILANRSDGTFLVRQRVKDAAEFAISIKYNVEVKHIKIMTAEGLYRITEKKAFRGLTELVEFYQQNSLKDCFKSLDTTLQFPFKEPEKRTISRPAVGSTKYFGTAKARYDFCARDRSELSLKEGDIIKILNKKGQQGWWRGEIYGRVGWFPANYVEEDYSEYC
# [1] = read-out: percent of DMSO vehicle control
# [2] = primary screen, 10 μM, read-out: percent of DMSO vehicle control
# T3 sequence (P07332 460-549 limits assumed): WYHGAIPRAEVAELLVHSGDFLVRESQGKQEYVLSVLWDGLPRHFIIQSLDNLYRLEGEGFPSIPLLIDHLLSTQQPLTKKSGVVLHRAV
# T2 sequence (P16591 460-550 limits assumed): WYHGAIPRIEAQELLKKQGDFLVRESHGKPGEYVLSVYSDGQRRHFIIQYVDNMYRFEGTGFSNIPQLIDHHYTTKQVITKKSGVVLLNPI
# T4 sequence (Q9UQQ2 364-462 limits assumed): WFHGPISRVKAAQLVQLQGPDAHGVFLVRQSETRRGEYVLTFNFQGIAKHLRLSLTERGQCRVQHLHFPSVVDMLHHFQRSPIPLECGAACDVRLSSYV
# T1 sequence (O14492 417-515 limits assumed): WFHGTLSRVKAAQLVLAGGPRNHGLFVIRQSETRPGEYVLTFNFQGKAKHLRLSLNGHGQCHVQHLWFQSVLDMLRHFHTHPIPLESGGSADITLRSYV
# T8 sequence (Q9H3Y6 whole entry): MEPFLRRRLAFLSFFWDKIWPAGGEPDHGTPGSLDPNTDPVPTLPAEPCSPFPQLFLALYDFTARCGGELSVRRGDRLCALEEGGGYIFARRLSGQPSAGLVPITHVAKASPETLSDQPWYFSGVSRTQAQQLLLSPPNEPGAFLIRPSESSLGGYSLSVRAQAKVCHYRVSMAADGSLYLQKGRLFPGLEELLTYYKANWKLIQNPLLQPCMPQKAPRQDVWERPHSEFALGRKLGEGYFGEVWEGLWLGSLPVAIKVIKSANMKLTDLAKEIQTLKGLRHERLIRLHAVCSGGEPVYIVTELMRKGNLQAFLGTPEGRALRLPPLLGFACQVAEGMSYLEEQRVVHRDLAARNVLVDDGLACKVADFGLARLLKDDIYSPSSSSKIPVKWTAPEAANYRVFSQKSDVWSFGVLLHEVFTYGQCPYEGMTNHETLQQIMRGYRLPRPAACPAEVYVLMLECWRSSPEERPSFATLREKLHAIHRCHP
SMILES,Kd (FES),Kd (PIK3R3(SH2dom.C-term.)),percent of DMSO vehicle control at 10 µM (APS (SH2B2); [1]),percent of DMSO vehicle control at 10 µM (FER; [1]),remaining activity at 10 µM (FES),remaining activity at 10 µM (LNK (SH2B3)),remaining activity at 10 µM (PIK3R3(SH2dom.C-term.)),remaining activity at 10 µM (PTPN6(SH2dom.N-term.)),remaining activity at 10 µM (SLP76),remaining activity at 10 µM (SRMS),remaining activity at 10 µM (STAT1),Kd (VAV1),percent of DMSO vehicle control at 10 µM (VAV1; [1]),also measured
CC[C@H](C)[C@H](NC(=O)[C@H](CCC(=O)O)NC(=O)[C@H](CCC(=O)O)NC(=O)[C@H](Cc1ccc(OP(=O)(O)O)cc1)NC(C)=O)C(=O)N[C@@H](CCC(=O)O)C(N)=O [Ac-pYEEIE-NH2] (Ac-[pY]EEIE-NH2),4200 nM,14900 nM,–,–,–,–,–,–,–,–,–,–,–,"percent of DMSO vehicle control (APS (SH2B2); primary screen, 10 μM): 121.8%; percent of DMSO vehicle control (FER; primary screen, 10 μM): 37.4%; percent of DMSO vehicle control (FES; primary screen, 10 μM): 24.1±2.4%; percent of DMSO vehicle control (LNK (SH2B3); primary screen, 10 μM): 72.0%; percent of DMSO vehicle control (PIK3R3(SH2dom.C-term.); primary screen, 10 μM): 27.7±0.9%; percent of DMSO vehicle control (PTPN6(SH2dom.N-term.); primary screen, 10 μM): 163.9%; percent of DMSO vehicle control (SLP76; primary screen, 10 μM): 42.0±2.1%; percent of DMSO vehicle control (SRMS; primary screen, 10 μM): 62.7±1.1%; percent of DMSO vehicle control (STAT1; primary screen, 10 μM): 69.3%; percent of DMSO vehicle control (VAV1; primary screen, 10 μM): 87.2±8.1%"
CC(=O)N[C@@H](Cc1ccc(CP(=O)(O)O)cc1)C(=O)NC1(C(=O)N[C@@H](CC(N)=O)C(=O)NCCCc2c(O)ccc3ccccc23)CCCCC1 [CGP78850],–,48 nM,128 ± 7.6%,136 ± 7.5%,52 ± 0.5%,79.1 ± 5.6%,0%,112 ± 9.8%,44.1 ± 5.3%,65.3 ± 5.9%,71.2 ± 2.1%,260 nM,1.8 ± 0.4%,–
CC[C@H](C)[C@H](NC(=O)[C@H](CCC(=O)O)NC(=O)[C@H](CCC(=O)O)NC(=O)[C@H](Cc1ccc(OP(=O)(O)O)cc1)NC(=O)/C=C/c1ccc(O)c(O)c1)C(=O)N[C@@H](CCC(=O)O)C(=O)O [Caffeic acid-pYEEIE] (Caffeoyl-[pY]EEIE-OH),24 ± 4.9 nM,230 ± 180 nM,2.2 ± 0.3%,0.8 ± 0.8%,2.2 ± 0.4%,0.4 ± 0.1%,0.8 ± 0.1%,118 ± 19.5%,99.6 ± 4.7%,0.1%,27.1 ± 21.3%,840 ± 530 nM,1.6 ± 0.6%,Kd (APS (SH2B2)): 2300 ± 450 nM; Kd (FER): 62 ± 86 nM; Kd (LNK (SH2B3)): 500 ± 410 nM; Kd (SRMS): 1.2 ± 0.73 nM; KD (STAT1; dose-response): No Hit
O=C(CCl)Nc1cccc(CNC(=O)[C@H](Cc2ccc(OP(=O)(O)O)cc2)NC(=O)Cc2ccc(F)cc2)c1 [MN551],–,–,–,–,–,–,–,–,–,–,–,–,–,"remaining activity at 10 µM (APS (SH2B2); [2]): 94.2 ± 3.2%; remaining activity at 10 µM (FER; [2]): 1.1 ± 0.2%; remaining activity at 10 µM (FES; primary screen, 10 μM): 82.1 ± 4.3%; Kd (LNK (SH2B3); dose-response, read-out: KD): 3900 ± 710 nM; remaining activity at 10 µM (LNK (SH2B3); primary screen, 10 μM): 17.7 ± 5.5%; Kd (PIK3R3(SH2dom.C-term.); dose-response, read-out: KD): 4400 nM; remaining activity at 10 µM (PIK3R3(SH2dom.C-term.); primary screen, 10 μM): 27.3 ± 3.8%; remaining activity at 10 µM (PTPN6(SH2dom.N-term.); primary screen, 10 μM): 102%; remaining activity at 10 µM (SLP76; primary screen, 10 μM): 116%; KD (SRMS; dose-response): No Hit; remaining activity at 10 µM (SRMS; primary screen, 10 μM): 1.3 ± 0.6%; remaining activity at 10 µM (STAT1; primary screen, 10 μM): 49.8 ± 4.1%; remaining activity at 10 µM (VAV1; [2]): 109%"
NC(=O)CC[C@H](NC(=O)[C@@H]1CC[C@@H]2CCN(C(=O)CCCCCC#Cc3cccc4c3CN(C3CCC(=O)NC3=O)C4=O)C[C@H](NC(=O)c3cc4cc(C(F)(F)P(=O)(O)O)ccc4[nH]3)C(=O)N21)C(=O)NC(c1ccccc1)c1ccccc1 (some centres unmarked) [SD-36],–,–,140 ± 6.1%,74.4 ± 18.6%,46.3 ± 7.5%,86.6%,57.8 ± 6.8%,87.3 ± 4.7%,66.5 ± 0.8%,102 ± 1.9%,9.1%,–,116 ± 3%,Kd (STAT1; dose-response): 180 ± 61 nM
CC(=O)N1CC[C@H]2CC[C@@H](C(=O)N[C@@H](CCC(N)=O)C(=O)NC(c3ccccc3)c3ccccc3)N2C(=O)[C@@H](NC(=O)c2cc3cc(C(F)(F)P(=O)(O)O)ccc3[nH]2)C1 [SI-109],–,–,130%,107%,160%,81.4 ± 6.7%,137%,123%,61.9%,123%,0%,–,112%,Kd (STAT1): 180 ± 35 nM
